According to patent US6368631B1, “Fine grain carriers and medicinal composition prepared with the use of the same” (Daiichi Pharmaceutical Co., Ltd., priority 1996, dated 2002):

Experiments:
[1] = In vivo evaluation of the complex of nanoparticles and PSP: plasma PSP concentration and pharmacokinetic parameters after duodenal administration; conditions: male, SD, rats, 9.4 mg in terms of PSP per rat, n=6, mean ± S.D.
Experimental: SD male rats (7 weeks old, about 200 g) were fasted for 24 hours. Under etherization, laparotomy was performed. By use of an injection needle, which was inserted through the pyrolus, the nanoparticle preparation (0.5 ml) prepared in Example 1 or the control preparation (0.5 ml) was administered duodenumally to the rats (dose: 9.4 mg in terms of PSP per rat; n=6). The cut was closed immediately after administration. Blood was collected from the carotid artery at 0.5, 1, 2, 4, 8, 12, and 24 hours following the administration. In accordance with the method of […] (Journal of Pharmaceutical Science, 79, 334, 1990), the plasma PSP concentration of each rat was measured. The plasma (0.3 ml) that had been centrifugally separated from the collected blood, purified water (0.3 ml), and aqueous 0.1 N NaOH solution (0.9 ml) were mixed. The mixture was filtered through use of an ultrafilter membrane (molecular weight of fractionation=10,000), to thereby remove proteins, etc. The filtrate was used as a sample solution. Separately, standard solutions were prepared through use of aqueous PSP-Na solutions (starting from 9.4 mg/ml in terms of PSP, a series of 2-fold dilutions) (0.3 ml each), a blank plasma from each rat (0.3 ml), and aqueous 0.1 N NaOH solution (0.9 ml) were mixed and ultrafiltered. For each of the sample solutions and standard solutions, absorption was determined through use of a spectrometer at the wavelength of 560 nm. Based on the results obtained from the standard solutions, a calibration curve was obtained, and the plasma PSP concentrations were measured. Based on the obtained time-plasma PSP concentration profile, pharmacokinetic parameters were calculated.

[2] = test system: ionized calcium concentration in blood; assay: In vivo evaluation of nanoparticle-sCT preparations: change of blood ionized calcium concentration after peroral administration; parameters: species or system SD male rats; conditions: rats fasted 24 h, 0.5 ml preparation, single administration
Experimental: To SD male rats (7 weeks old, about 200 g) fasted for 24 hours were administered perorally the nanoparticle preparation (0.5 ml) prepared in Example 3 or the control preparation (0.5 ml) (n=5). After administration, blood was collected from the tail vein of each rat in an amount of about 60 μl at 40 minutes, 80 minutes, 2, 3, 4, 6, and 8 hours following the administration.
Using a 634 Ca^++/pH analyzer (Ciba-Coning), the concentration of ionized calcium in the collected blood was measured. The difference between the ionized calcium concentration at time 0 and that at each of the aforementioned times was calculated and plotted. From the plots, presence or absence of the effect of absorption enhancement obtained through formation of nanoparticles was determined.
In this connection, sCT is known to have the pharmacological effect of reducing the blood ionized calcium concentration.
By use of the nanoparticle preparation or the control preparation obtained in Example 7, the procedure of Example 4 was repeated to thereby determine the presence or absence of the effect of absorption enhancement obtained by the formation of nanoparticles.
By use of the nanoparticle preparation or the control preparation obtained in Example 9, the procedure of Example 4 was repeated to thereby determine the presence or absence of the effect of absorption enhancement obtained by the formation of nanoparticles. […]

Compound	AUC(0-inf) [1] [ng·h/mL]	Cmax [1] [ng/mL]	Tmax [1] [h]	MRT last ([1]; read-out: MRT0-24 h) [h]	effect of reducing the blood ionized calcium concentration [2]
O=S1(=O)OC(c2ccc(O)cc2)(c2ccc(O)cc2)c2ccccc21 [Aq. PSP-Na sol. (control prep.), phenolsulfonphthalein]	9970 ± 2200	2000 ± 290	0.92 ± 0.2	4.57 ± 0.34	
salmon calcitonin [aqueous sCT solution]					slightly decreased
